The text below walks through data of patent publication US6653478B2, “Substituted benzimidazol-2-ones as vasopressin receptor antagonists and neuropeptide Y modulators” (Ortho-McNeil Pharmaceutical, Inc., priority 2000, dated 2003).

For orientation: IC50 means the point on the concentration scale where inhibition reaches its midpoint. A lower IC50 goes with greater potency.

Test [1] addresses human V2 receptor (Homo sapiens, UniProt P30518). Nature of the test: V2 binding assay (3H-AVP displacement, HEK-293 membranes). More on the design: expressed in transfected cells; host or cells: HEK-293 (membranes). The conditions noted are these: 1.0 μM compound; read-out: V2@1.0, % Inh. An outline of the steps: (§1)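 Membranes from transfected HEK-293 cells incubated 1 h at room temperature with ³H-AVP (10,000 cpm) in 50 mM Tris, 5 mM MgCl2, 0.1% BSA, pH 7.5 plus protease inhibitors. Non-specific binding set with 1.25 μM AVP. Bound tracer collected on PEI-soaked GF/C filters and counted by scintillation.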

Test [2] concerns the target T1, human V1b receptor (Homo sapiens, UniProt P47901).
T1 sequence (P47901 1-424): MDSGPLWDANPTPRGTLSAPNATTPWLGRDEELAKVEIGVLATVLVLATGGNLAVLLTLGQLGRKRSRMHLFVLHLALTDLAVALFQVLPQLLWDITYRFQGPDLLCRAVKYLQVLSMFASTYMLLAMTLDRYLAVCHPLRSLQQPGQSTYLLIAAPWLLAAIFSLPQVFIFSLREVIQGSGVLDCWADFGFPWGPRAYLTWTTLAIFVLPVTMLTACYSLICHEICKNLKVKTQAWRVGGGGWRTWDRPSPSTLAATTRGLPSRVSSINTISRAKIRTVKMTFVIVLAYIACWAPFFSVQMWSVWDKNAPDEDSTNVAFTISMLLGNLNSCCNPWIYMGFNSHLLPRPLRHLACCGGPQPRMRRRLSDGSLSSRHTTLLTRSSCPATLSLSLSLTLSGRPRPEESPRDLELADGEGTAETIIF
Description: V1b binding assay (3H-AVP displacement, HEK-293 membranes). More on the design: expressed in transfected cells; host or cells: HEK-293 (membranes). The settings on record: for inhibition at 1 µM: 1.0 μM compound, read-out: V1b@1.0, % Inh. The gist of the method: as §1

Test [3] addresses T2, NPY2 receptors (Homo sapiens, UniProt P49146).
T2 construct: Cell Membranes from KAN-TS cells having NPY2 receptors; endogenous in cells; host or cells: KAN-TS cells (membranes)
T2 sequence (P49146 1-381): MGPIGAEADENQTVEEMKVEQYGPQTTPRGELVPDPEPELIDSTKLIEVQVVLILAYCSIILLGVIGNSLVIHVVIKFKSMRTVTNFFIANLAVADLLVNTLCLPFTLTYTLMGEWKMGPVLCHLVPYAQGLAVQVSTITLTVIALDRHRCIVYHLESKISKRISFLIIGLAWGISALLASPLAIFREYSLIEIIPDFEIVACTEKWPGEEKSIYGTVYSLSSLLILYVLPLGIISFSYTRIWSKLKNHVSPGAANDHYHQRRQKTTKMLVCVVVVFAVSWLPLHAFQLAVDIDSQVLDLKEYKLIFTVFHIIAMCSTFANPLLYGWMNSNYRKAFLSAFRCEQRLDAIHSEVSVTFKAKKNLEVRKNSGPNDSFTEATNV
Nature of the test: Neuropeptide Y receptor binding assay (125I-PYY, KAN-TS cell membranes). The conditions noted are these: 10 μM compound; read-out: NPY-2@10, % Inh. An outline of the steps:
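Membranes from KAN-TS cells competed with 125I-PYY in binding buffer containing BSA, test compound at 10 μM final, 1 hr at room temperature. Nonspecific binding defined with 1 μM PYY final. Tubes centrifuged, washed with PBS and bound radioactivity gamma-counted.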

Test [4] has as its target human V1a receptor (Homo sapiens, UniProt P37288). Description: V1a binding assay (3H-AVP displacement, HEK-293 membranes). More on the design: expressed in transfected cells; host or cells: HEK-293 (membranes). The settings on record: for inhibition at 1 µM: 1.0 μM compound, read-out: V1a@1.0, % Inh. The gist of the method:
as §1

Sequence of human V1a receptor (P37288 whole entry): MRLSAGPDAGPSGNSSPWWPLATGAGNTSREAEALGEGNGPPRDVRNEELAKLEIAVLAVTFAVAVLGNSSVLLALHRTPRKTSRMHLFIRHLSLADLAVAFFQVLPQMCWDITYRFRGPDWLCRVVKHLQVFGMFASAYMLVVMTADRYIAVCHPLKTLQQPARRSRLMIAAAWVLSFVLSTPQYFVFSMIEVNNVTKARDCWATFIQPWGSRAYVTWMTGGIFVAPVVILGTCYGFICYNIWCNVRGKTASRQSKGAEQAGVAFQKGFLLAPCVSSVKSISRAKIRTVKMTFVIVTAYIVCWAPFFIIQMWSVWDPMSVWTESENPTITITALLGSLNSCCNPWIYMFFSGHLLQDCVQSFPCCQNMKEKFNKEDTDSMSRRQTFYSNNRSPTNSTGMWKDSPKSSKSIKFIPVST
Sequence of human V2 receptor (P30518 whole entry): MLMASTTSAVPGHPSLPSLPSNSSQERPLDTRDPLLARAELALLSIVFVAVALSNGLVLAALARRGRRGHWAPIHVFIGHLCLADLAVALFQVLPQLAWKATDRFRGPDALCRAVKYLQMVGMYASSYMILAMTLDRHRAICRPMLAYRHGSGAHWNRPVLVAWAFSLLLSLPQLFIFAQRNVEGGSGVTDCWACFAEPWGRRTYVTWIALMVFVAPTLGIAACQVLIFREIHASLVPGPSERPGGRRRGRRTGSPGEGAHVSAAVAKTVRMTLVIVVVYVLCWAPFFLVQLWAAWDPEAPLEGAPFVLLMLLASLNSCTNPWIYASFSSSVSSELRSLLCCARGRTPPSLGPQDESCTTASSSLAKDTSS

Consider `O=C(NCc1ccccc1F)N1CCC(n2c(=O)n(CCCN3CCCC3)c3ccccc32)CC1` [Compound 89], for which the inhibition at 1 µM in test [1] is 0%; in test [2], 10%; in test [4], 34%. Also, the inhibition at 10 µM in test [3] was 8%.
As to `CCN(CC)CCn1c(=O)n(C2CCN(C(=S)NCc3ccccc3-c3ccccc3)CC2)c2ccccc21` [Compound 90, 1-(N1-Piperidinocarbothioyl-(2-phenylbenzylamino)-4-yl)-3-(2-diethyaminoethyl)benzimidazol-2-one], the inhibition at 1 µM in test [1] was 5%; in test [2], 27%. Further, the inhibition at 10 µM in test [3] came out at 13%. In addition, the IC50 in test [4] came to 62 nM.
In the case of `CCN(CC)CCn1c(=O)n(C2CCN(C(=O)NC(c3ccccc3)c3ccccc3)CC2)c2ccccc21` [Compound 91, 1-(N1-Piperidinocarbonyldiphenylmethylamino-4-yl)-3-(2-N,N-diethyaminoethyl)benzimidazol-2-one], the inhibition at 1 µM in test [1] was 0%; in test [2] it was 24%; in test [4] it was 64%. Besides, the inhibition at 10 µM in test [3] was 56%.
For `CCN(CC)CCn1c(=O)n(C2CCN(C(=O)Nc3ccccc3C)CC2)c2ccccc21` [Compound 92, 1-[(N1-Piperidinocarbonyl-2-methylphenylamino)-4-yl]-3-(2-N,Ndiethylaminoethyl)-1,3-dihydrobenzimidazol-2-one] the same measures were 3%, 5%, 3% and 0%.
On to `CN1CCCC1CCn1c(=O)n(C2CCN(C(=S)NC(c3ccccc3)c3ccccc3)CC2)c2ccccc21` (stereo not shown) [Compound 93], for which the inhibition at 1 µM was determined as 0% in test [1] and 48% in test [2]. For the same molecule, the inhibition at 10 µM in test [3] is 17%. In addition, in test [4], the IC50 came out at 49 nM.
As for `CN1CCCC1CCn1c(=O)n(C2CCN(C(=O)NC(c3ccccc3)c3ccccc3)CC2)c2ccccc21` (stereo not shown) [Compound 94], the inhibition at 1 µM in test [1] came to 8%; in test [2], 33%; in test [4], 68%. In test [3], the inhibition at 10 µM came to 78%.
For the molecule `O=C(NC(c1ccccc1)c1ccccc1)N1CCC(n2c(=O)n(CCCN3CCOCC3)c3ccccc32)CC1` [Compound 95, 1-[(N1-piperidinocarbonylbiphenylmethylamino)-4-yl]-3-(3-morpholinopropyl)-1,3-dihydrobenzimidazol-2-one], the inhibition at 1 µM was found to be 2% in test [1] and 23% in test [2]. The inhibition at 10 µM in test [3] was 0%. This molecule also registered an IC50 in test [4] of 162 nM.
Regarding `O=C(NC(c1ccccc1)c1ccccc1)N1CCC(n2c(=O)n(CCCN3CCCC3)c3ccccc32)CC1` [Compound 96, 1-[(N1-piperidinocarbonyldiphenylmethylamino)-4-yl]-3-(3-N-pyrrolidinylpropyl)-1,3-dihydrobenzimidazol-2-one], the figures for the inhibition at 1 µM in test [1] and in test [2] were 0% and 43%, respectively. Also, in test [3], the inhibition at 10 µM is 20%. In addition, the IC50 in test [4] was 79 nM.
As to `O=C(NC(c1ccccc1)c1ccccc1)N1CCC(n2c(=O)n(CCCN3CCCCC3)c3ccccc32)CC1` [Compound 97, 1-[(N1-piperidinocarbonylbiphenylmethylamino)-4-yl]-3-(3-N-piperidinylpropyl)-1,3-dihydrobenzimidazol-2-one], the inhibition at 1 µM in test [1] is 0%; in test [2], 35%. Besides, the inhibition at 10 µM in test [3] turned out to be 14%. The IC50 in test [4] was 34 nM.
On to `CN(CCCn1c(=O)n(C2CCN(C(=S)NC(c3ccccc3)c3ccccc3)CC2)c2ccccc21)C1CCCCC1` [Compound 98, 1-[(N1-piperidinocarbothioylbiphenylmethylamino)-4-yl]-3-(3-N,N-methylcyclohexylaminopropyl)-1,3-dihydrobenzimidazol-2-one], for which, in test [1], the inhibition at 1 µM was 0%. In addition, the IC50 in test [2] came to 179 nM; in test [4], 22 nM. In addition, the inhibition at 10 µM in test [3] turned out to be 85%.
